The target in one assay is Xaa-Pro aminopeptidase 1 (Homo sapiens, UniProt Q9NQW7). The assay is described as follows: Inhibition of amino peptidase P.
A further assay concerns the target T1, Xaa-Pro dipeptidase (Homo sapiens, UniProt P12955).
T1 sequence (P12955 whole entry): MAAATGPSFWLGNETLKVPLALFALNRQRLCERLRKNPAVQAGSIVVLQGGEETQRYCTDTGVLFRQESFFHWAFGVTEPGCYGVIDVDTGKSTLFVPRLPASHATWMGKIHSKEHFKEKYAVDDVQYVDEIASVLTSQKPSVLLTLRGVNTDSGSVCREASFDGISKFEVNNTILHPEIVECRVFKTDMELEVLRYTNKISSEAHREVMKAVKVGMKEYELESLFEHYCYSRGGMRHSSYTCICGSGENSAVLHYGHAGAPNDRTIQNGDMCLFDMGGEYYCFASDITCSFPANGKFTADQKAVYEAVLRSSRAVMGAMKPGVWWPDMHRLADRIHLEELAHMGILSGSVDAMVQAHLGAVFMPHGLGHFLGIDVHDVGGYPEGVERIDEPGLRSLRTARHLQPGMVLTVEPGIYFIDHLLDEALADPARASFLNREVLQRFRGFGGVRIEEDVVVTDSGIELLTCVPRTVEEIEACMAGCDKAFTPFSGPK
The assay can be described thus: Inhibition of prolidase.

The target in a further assay is Dipeptidyl peptidase 4 (Homo sapiens, UniProt P27487).
Sequence of Dipeptidyl peptidase 4 (P27487 whole entry): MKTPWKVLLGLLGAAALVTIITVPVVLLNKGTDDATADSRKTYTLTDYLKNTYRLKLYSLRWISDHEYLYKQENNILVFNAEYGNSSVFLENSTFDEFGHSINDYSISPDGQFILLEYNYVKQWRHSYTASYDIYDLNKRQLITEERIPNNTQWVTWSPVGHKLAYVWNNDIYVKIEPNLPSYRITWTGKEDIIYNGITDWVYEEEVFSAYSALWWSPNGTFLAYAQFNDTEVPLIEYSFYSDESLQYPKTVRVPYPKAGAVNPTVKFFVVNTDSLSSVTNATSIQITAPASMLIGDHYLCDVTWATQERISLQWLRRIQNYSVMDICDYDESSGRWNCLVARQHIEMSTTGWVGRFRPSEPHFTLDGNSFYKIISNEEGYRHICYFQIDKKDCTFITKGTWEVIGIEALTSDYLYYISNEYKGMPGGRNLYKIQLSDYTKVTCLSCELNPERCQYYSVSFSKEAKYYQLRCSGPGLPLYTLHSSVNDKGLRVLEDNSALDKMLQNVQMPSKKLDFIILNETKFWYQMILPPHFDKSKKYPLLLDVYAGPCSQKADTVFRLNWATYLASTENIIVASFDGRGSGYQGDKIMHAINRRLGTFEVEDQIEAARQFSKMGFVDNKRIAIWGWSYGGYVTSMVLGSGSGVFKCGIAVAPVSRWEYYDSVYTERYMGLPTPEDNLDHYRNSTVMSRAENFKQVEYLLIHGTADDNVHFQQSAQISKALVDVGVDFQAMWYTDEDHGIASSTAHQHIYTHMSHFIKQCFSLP
A further assay concerns the target Dipeptidyl peptidase 2 (Homo sapiens, UniProt Q9UHL4). The assay can be described thus: Inhibition of QPP.
For a further assay, the target named is Dipeptidyl peptidase 8 (Homo sapiens, UniProt Q6V1X1). The assay can be described thus: Inhibition of DPP8.
Sequence of Dipeptidyl peptidase 8 (Q6V1X1 whole entry): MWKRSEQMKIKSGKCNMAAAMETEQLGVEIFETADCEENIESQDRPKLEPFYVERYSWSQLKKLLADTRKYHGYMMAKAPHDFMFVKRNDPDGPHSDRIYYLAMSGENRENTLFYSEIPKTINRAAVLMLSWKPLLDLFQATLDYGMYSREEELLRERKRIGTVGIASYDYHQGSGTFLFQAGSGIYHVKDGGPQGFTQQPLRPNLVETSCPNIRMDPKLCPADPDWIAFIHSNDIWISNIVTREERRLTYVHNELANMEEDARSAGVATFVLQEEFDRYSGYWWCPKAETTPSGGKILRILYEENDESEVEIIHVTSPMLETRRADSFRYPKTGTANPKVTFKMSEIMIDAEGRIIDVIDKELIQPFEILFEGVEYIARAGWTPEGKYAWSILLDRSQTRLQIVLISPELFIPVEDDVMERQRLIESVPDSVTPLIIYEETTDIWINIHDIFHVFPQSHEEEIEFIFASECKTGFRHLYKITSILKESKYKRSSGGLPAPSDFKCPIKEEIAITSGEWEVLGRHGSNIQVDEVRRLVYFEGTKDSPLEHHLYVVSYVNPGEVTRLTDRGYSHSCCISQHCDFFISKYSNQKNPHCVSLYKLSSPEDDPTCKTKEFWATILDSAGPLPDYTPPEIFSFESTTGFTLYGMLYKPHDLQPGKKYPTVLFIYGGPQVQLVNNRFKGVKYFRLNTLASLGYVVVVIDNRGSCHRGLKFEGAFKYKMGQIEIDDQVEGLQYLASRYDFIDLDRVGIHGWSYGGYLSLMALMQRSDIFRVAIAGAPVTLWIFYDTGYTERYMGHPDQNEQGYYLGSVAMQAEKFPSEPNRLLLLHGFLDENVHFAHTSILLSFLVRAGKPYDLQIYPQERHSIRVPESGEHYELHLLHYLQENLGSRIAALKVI
The target in the next assay is Dipeptidyl peptidase 9 (Homo sapiens, UniProt Q86TI2). The assay can be described thus: Inhibition of DPP9.
Sequence of Dipeptidyl peptidase 9 (Q86TI2 whole entry): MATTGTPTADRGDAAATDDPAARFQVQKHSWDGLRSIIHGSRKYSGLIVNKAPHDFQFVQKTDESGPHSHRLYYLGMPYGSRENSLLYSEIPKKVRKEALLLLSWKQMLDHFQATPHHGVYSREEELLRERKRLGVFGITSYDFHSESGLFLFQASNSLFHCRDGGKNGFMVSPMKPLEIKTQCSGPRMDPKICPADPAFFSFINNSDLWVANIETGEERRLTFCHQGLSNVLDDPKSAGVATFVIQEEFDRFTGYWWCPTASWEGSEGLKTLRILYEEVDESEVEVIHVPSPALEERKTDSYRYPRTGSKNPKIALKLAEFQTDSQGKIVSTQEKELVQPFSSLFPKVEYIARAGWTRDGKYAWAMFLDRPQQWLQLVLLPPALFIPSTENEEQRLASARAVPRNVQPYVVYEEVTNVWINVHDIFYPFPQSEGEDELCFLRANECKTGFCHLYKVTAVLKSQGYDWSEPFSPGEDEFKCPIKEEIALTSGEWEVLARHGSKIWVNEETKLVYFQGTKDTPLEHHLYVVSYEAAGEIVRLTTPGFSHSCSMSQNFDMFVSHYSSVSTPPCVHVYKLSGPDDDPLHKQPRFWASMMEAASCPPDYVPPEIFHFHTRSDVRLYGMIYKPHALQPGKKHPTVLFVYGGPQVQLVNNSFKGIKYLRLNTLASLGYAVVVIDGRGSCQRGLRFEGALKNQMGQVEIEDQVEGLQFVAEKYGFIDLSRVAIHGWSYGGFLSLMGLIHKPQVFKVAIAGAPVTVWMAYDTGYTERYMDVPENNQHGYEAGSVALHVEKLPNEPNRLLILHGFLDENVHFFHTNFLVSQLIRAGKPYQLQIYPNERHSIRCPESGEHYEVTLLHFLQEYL
The next assay has as its target T2, Prolyl endopeptidase FAP (Homo sapiens, UniProt Q12884).
T2 sequence (Q12884 whole entry): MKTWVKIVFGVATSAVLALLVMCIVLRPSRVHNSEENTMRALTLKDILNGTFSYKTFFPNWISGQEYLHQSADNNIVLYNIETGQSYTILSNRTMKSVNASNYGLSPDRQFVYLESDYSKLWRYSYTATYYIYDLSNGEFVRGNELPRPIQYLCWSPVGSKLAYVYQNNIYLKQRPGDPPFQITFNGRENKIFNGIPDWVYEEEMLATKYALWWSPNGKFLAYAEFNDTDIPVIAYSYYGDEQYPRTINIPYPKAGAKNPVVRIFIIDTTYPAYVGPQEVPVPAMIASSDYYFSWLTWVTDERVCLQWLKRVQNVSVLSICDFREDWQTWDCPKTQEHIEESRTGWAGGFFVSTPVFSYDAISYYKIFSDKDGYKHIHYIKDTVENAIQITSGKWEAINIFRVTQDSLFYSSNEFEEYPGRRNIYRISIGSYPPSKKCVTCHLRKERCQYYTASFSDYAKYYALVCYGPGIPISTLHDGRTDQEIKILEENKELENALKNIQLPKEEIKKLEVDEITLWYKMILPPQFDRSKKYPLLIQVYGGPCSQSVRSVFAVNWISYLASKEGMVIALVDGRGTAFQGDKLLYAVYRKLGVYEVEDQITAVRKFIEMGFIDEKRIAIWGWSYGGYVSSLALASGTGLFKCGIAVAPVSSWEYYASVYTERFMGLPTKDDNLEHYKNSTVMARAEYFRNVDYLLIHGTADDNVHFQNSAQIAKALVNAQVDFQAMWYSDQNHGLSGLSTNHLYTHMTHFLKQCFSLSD
The assay can be described thus: Inhibition of FAP.

Each structure is given as a SMILES string.

As a reminder, the IC50 is the concentration that gives 50% inhibition. A lower IC50 goes with greater potency.

Sequence of Xaa-Pro aminopeptidase 1 (Q9NQW7 whole entry): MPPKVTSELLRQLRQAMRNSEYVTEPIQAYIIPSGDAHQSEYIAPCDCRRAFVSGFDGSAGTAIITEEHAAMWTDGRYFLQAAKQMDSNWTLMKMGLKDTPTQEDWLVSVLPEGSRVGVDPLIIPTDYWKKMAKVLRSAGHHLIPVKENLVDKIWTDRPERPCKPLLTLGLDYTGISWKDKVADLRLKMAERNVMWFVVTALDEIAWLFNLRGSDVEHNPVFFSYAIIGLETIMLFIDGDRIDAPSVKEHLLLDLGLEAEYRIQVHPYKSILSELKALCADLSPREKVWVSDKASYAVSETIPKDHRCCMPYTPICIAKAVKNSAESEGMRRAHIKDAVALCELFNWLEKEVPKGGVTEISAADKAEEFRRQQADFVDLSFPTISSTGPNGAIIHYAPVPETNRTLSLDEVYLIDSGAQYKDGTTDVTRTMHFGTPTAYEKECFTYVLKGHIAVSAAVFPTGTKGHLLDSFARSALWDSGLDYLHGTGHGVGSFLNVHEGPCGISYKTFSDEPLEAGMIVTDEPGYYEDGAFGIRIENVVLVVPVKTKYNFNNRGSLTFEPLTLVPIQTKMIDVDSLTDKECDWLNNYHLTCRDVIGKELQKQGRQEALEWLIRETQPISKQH

`N[C@@H](CC(=O)N1CCNC[C@H]1Cc1ccccc1)Cc1ccccc1F`: the IC50 against Xaa-Pro aminopeptidase 1 and at Xaa-Pro dipeptidase was greater than 10 µM in each case.

As for `N[C@@H](CC(=O)N1CCNCC1)Cc1ccccc1F`, the IC50 on Xaa-Pro aminopeptidase 1 and on Xaa-Pro dipeptidase was greater than 10 µM throughout.

Take `C[C@H]1CN(C(=O)C[C@H](N)Cc2cc(F)c(F)cc2F)Cc2ccc(C(F)(F)F)n21`: the 50% inhibitory concentration (IC50) is 0.023 µM at Dipeptidyl peptidase 4; greater than 100 µM on Dipeptidyl peptidase 2; 23 µM at Dipeptidyl peptidase 8; 23 µM against Dipeptidyl peptidase 9; greater than 10 µM on Xaa-Pro aminopeptidase 1; greater than 10 µM on Xaa-Pro dipeptidase. This compound also showed an IC50 against Prolyl endopeptidase FAP greater than 10 µM.

On to `CC1(C)c2nnc(C(F)(F)F)n2CCN1C(=O)C[C@H](N)Cc1cc(F)c(F)cc1F`, for which the IC50 against Dipeptidyl peptidase 4 was 0.175 µM; on Dipeptidyl peptidase 2, 23 µM; at Dipeptidyl peptidase 8, 6 µM; against Dipeptidyl peptidase 9, 20 µM; against Xaa-Pro aminopeptidase 1, greater than 10 µM; against Xaa-Pro dipeptidase it was greater than 10 µM. The same compound showed an IC50 against Prolyl endopeptidase FAP greater than 10 µM.

On to `CC1(C)CN(C(=O)C[C@H](N)Cc2cc(F)c(F)cc2F)Cc2nnc(C(F)(F)F)n21`, for which the IC50 is 0.092 µM at Dipeptidyl peptidase 4; 77 µM against Dipeptidyl peptidase 2; 66 µM at Dipeptidyl peptidase 8; 54 µM against Dipeptidyl peptidase 9; greater than 10 µM on Xaa-Pro aminopeptidase 1; greater than 10 µM against Xaa-Pro dipeptidase. Besides, the IC50 against Prolyl endopeptidase FAP was greater than 10 µM.

`C[C@@H]1Cn2c(nnc2C(F)(F)F)CN1C(=O)C[C@H](N)Cc1cc(F)c(F)cc1F`: the IC50 was 0.042 µM at Dipeptidyl peptidase 4; greater than 100 µM at Dipeptidyl peptidase 2; 75 µM against Dipeptidyl peptidase 8; greater than 100 µM against Dipeptidyl peptidase 9; greater than 10 µM against Xaa-Pro aminopeptidase 1; greater than 10 µM against Xaa-Pro dipeptidase. This compound also returned a half-inhibitory concentration (IC50) against Prolyl endopeptidase FAP greater than 10 µM.

In the case of `C[C@H]1c2nnc(C(F)(F)F)n2[C@@H](C)CN1C(=O)C[C@H](N)Cc1cc(F)c(F)cc1F`, the IC50 on Dipeptidyl peptidase 4 was 0.209 µM; against Dipeptidyl peptidase 2 it was greater than 100 µM; at Dipeptidyl peptidase 8, greater than 100 µM; against Dipeptidyl peptidase 9 it was greater than 100 µM; on Xaa-Pro aminopeptidase 1 it was greater than 10 µM; on Xaa-Pro dipeptidase, greater than 10 µM. Further, the IC50 at Prolyl endopeptidase FAP was greater than 10 µM.

With `C[C@H]1c2nnc(C(F)(F)F)n2CCN1C(=O)C[C@H](N)Cc1cc(F)c(F)cc1F`, the IC50 was 0.088 µM against Dipeptidyl peptidase 4; greater than 100 µM on Dipeptidyl peptidase 2; greater than 100 µM on Dipeptidyl peptidase 8; greater than 100 µM against Dipeptidyl peptidase 9; greater than 10 µM on Xaa-Pro aminopeptidase 1; greater than 10 µM against Xaa-Pro dipeptidase. Besides, the IC50 against Prolyl endopeptidase FAP was greater than 10 µM.

As for `C[C@H]1Cn2c(nnc2C(F)(F)F)CN1C(=O)C[C@H](N)Cc1cc(F)c(F)cc1F`, the half-maximal inhibitory concentration (IC50) at Dipeptidyl peptidase 4 was 0.091 µM; at Dipeptidyl peptidase 2, 74 µM; at Dipeptidyl peptidase 8 it was greater than 100 µM; against Dipeptidyl peptidase 9, 53 µM; at Xaa-Pro aminopeptidase 1 it was greater than 10 µM; at Xaa-Pro dipeptidase, greater than 10 µM. The IC50 against Prolyl endopeptidase FAP is greater than 10 µM.

For the compound `N[C@@H](CC(=O)N1CCn2c(nnc2C(F)(F)F)[C@@H]1Cc1ccc(F)cc1)Cc1cc(F)c(F)cc1F`, the IC50 against Dipeptidyl peptidase 4 was 0.116 µM; against Dipeptidyl peptidase 2, 39 µM; on Dipeptidyl peptidase 8, greater than 100 µM; on Dipeptidyl peptidase 9, greater than 100 µM; against Xaa-Pro aminopeptidase 1, greater than 10 µM; on Xaa-Pro dipeptidase, greater than 10 µM. In addition, the IC50 against Prolyl endopeptidase FAP is greater than 10 µM.

As for `N[C@@H](CC(=O)N1CCn2c(nnc2C(F)(F)F)C1Cc1ccccc1)Cc1cc(F)c(F)cc1F` (single isomer, unassigned), the IC50 at Dipeptidyl peptidase 4 was 0.14 µM; at Dipeptidyl peptidase 2, 87 µM; against Dipeptidyl peptidase 8, greater than 100 µM; on Dipeptidyl peptidase 9, greater than 100 µM; on Xaa-Pro aminopeptidase 1, greater than 10 µM; at Xaa-Pro dipeptidase, greater than 10 µM. At Prolyl endopeptidase FAP, this compound showed a half-inhibitory concentration (IC50) greater than 10 µM.

For the compound `CC1c2nnc(C(F)(F)F)n2C(C)CN1C(=O)C[C@H](N)Cc1cc(F)c(F)cc1F` (stereo in doubt; 16a), the IC50 on Dipeptidyl peptidase 4 was 0.1 µM; against Dipeptidyl peptidase 2 it was greater than 100 µM; against Dipeptidyl peptidase 8, greater than 100 µM; against Dipeptidyl peptidase 9 it was greater than 100 µM; on Xaa-Pro aminopeptidase 1, greater than 10 µM; on Xaa-Pro dipeptidase it was greater than 10 µM. At Prolyl endopeptidase FAP, the IC50 is greater than 10 µM.

These data come from ChEMBL document CHEMBL1140747, “Discovery of potent and selective dipeptidyl peptidase IV inhibitors derived from beta-aminoamides bearing subsituted triazolopiperazines” (J Med Chem, 2008).
